The text below walks through data of patent US20150119429A1, “Iron Chelators as HIV-1 Inhibitors” (Howard University, priority 2012, published 2015).

Series [1] relates to VSVG-pseudotyped pNL4-3.Luc.R-E-(HIV-1 Luc) virus. The series is described as follows: One round of HIV-1-Luc replication in CEM cells (luciferase activity). The series is classed as cell-based. The settings on record: for IC50: Human immunodeficiency virus 1, CCRF-CEM, CEM cells infected about 18 h, treated about 24 h at about 37° C., FIG. 2, read-out: IC50 for inhibition of HIV-1 replication; for inhibition of HIV-1 replication compared with Bp4eT: CEM cells infected 18 h, treated 24 h at 37° C., FIG. 8.

Another series has as its system CEM cells. Briefly: Toxicity of iron chelators in CEM cells (calcein-AM fluorescence). In kind it is cell-based, human. As to conditions: about 24 h at about 37° C., micromolar concentrations, FIG. 3.
Series [2] has as its system cellular iron in THP-1 cells. The series is described as follows: Cellular iron chelation in THP-1 cells (calcein fluorescence). In kind it is cell-based, human. The settings on record: THP-1 cells treated with FeS, loaded with calcein-AM, versus control SIH compound, FIG. 4. How it is done: To assess iron chelating efficiency, human acute monocytic leukemia cell line (THP-1) cells were untreated (control) or treated with FeS for about 1 hr at about 37° C., and then loaded with iron sensor, calcein-AM for about 10 min at about 37° C. After washing with phosphate buffer solution (PBS), cells were treated with various iron chelators. In Figure. 4, calcein fluorescence was measured in a real-time PCR machine as a function of time. Fractional fluorescence (F-Fi)/Fi is proportional to the amount of chelatable iron.

A further series relates to IkB gene. The series is described as follows: Induction of IkB gene expression in 293T cells (real-time PCR). The series is classed as cell-based, human. As to conditions: about 24 hours of treatment, DDCt vs DMSO, FIG. 5. Background: Real-time PCR tracks product formation cycle by cycle.
The test system of the next series is heme oxygenase-1 gene. Briefly: Induction of heme oxygenase-1 expression in THP-1 cells (real-time PCR). As to conditions: about 24 hours of treatment, DDCt, hemin at 100 μM, FIG. 6. The series is classed as cell-based, human.

For orientation: IC50 means the point on the concentration scale where inhibition reaches its midpoint.

In the case of `CCNC(=S)N/N=C(\c1ccccc1)c1ccccn1` [Bp4-eT, reference compound], the concentration for half-maximal inhibition (IC50) in series [1] worked out at 7.5 nM.

In the case of `O=C(Cc1ccccc1)c1ccccn1` [PPY, 2-phenyl-1-pyridin-2yl-ethanone, reference compound], in the series on CEM cells, the toxicity result is “Neither PPY, nor representative PpYeT and PpYaT compounds show significant toxicity”.

On to `C=CCNC(=S)N/N=C(\Cc1ccccc1)c1ccccn1` [PpYaT], for which, in series [1], the “inhibition of HIV-1 replication compared with Bp4eT” value is reported as “inhibit HIV-1 replication comparable to the effect of previously studied Bp4eT chelator” and the half-maximal inhibitory concentration (IC50) amounted to 14 nM. Also, the toxicity entry in the series with CEM cells was “Neither PPY, nor representative PpYeT and PpYaT compounds show significant toxicity”. Also, in series [2], the “iron chelating efficiency (fractional calcein fluorescence)” value is listed as “better than the control SIH compound”. The “expression of IkB” value in the series on IkB gene is “induce expression of IkB”. Further, in the series with heme oxygenase-1 gene, the “expression of heme oxygenase-1 (HO-1)” value was “induce expression of heme oxygenase-1 (HO-1)”.

On to `CCNC(=S)N/N=C(\Cc1ccccc1)c1ccccn1` [PpYeT], for which, in series [1], the “inhibition of HIV-1 replication compared with Bp4eT” value was “inhibit HIV-1 replication comparable to the effect of previously studied Bp4eT chelator” and the IC50 worked out at 14 nM. Also, in the series on CEM cells, the toxicity entry was “Neither PPY, nor representative PpYeT and PpYaT compounds show significant toxicity”. The “iron chelating efficiency (fractional calcein fluorescence)” value in series [2] is on record as “better than the control SIH compound”. In addition, in the series with IkB gene, the “expression of IkB” value is listed as “induce expression of IkB”. In addition, the “expression of heme oxygenase-1 (HO-1)” value in the series on heme oxygenase-1 gene was “induce expression of heme oxygenase-1 (HO-1)”.

For the molecule hemin [reference compound], the “expression of heme oxygenase-1 (HO-1)” value in the series on heme oxygenase-1 gene is given as “induced expression of HO-1”.
